Data taken from PubChem BioAssay AID1963597 (National Center for Advancing Translational Sciences (NCATS), 2024).
Residues, ends and D or L forms follow the SMILES beside them.

tested on: human liver microsomes, metabolic stability half-life; test: NCATS Human Liver Microsomal (HLM) Stability Profiling; settings: higher = more stable; screened at 1 µM (by protocol)
Outline: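 Half-life derived from parent loss over 0–60 min (0, 5, 10, 15, 30, 60 min) at 37 °C. Incubations: 0.5 mg/mL microsomes, 1 µM test article, NADPH regeneration, pH 7.4 phosphate; quenched in acetonitrile containing albendazole, analysed by MS.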

| SMILES | half-life [min] |
| --- | --- |
| CC(=O)N1CCN(c2ccc(O)cc2)CC1 | > 120 |
| CCOc1ccc(NS(=O)(=O)c2ccc(N)cc2)nn1 | > 120 |
| CNS(=O)(=O)CCc1ccc2[nH]cc(C3CCN(C)CC3)c2c1 | > 120 |
| CNP(=O)(OC)Oc1ccc(C(C)(C)C)cc1Cl (centres undefined) | 47.5 |
| O=c1oc2ccccc2c(O)c1Cc1c(O)c2ccccc2oc1=O | 33.3 |
| O=C(NCC1CCN(Cc2cccc(Cl)c2)CC1)[C@@H]1CCCN(c2ncnc3c2nc2n3CCCC2)C1 | 8.65 |
| Cc1ccccc1NC(=O)Nc1cccs1 | 22.8 |
| O=C(O)c1ccccc1NCCc1ccccc1 | 23.8 |
| Cc1ccc2c(n1)Oc1ccc(C(C)C(=O)OCC(=O)N(C)C)cc1C2 (centres undefined) | 11.1 |
| Cc1nnc(C(C)C)n1C1CC2CCC(C1)N2CCC(NC(=O)C1CCC(F)(F)CC1)c1ccccc1 (centres undefined) | > 120 |
| CN(C)[C@@H]1C(=O)C(C(N)=O)=C(O)[C@@]2(O)C(=O)C3=C(O)c4c(O)cccc4C[C@H]3C[C@@H]12 | > 120 |
| Cc1ccc(O)cc1Nc1ccnc(Nc2cccc(C(N)=O)c2)n1 | 86.5 |
| Cc1ccc(COC(=O)N2CC[C@@H](CNc3ncccn3)[C@@H](F)C2)cc1 | 64.9 |
| COC(=O)[C@H](Cc1ccccc1)NC(=O)[C@@H](N)CC(=O)O (H-Asp-Phe-OMe) | 40.7 |
| Clc1cccc(N2CCNCC2)c1 | 39.8 |
| CC(=O)OCC(=O)[C@@]12OC(C)(C)O[C@@H]1C[C@H]1[C@@H]3C[C@H](F)C4=CC(=O)C=C[C@]4(C)[C@@]3(F)[C@@H](O)C[C@@]12C | 44.3 |
| COc1ccc(C(=O)C2CCN(CC(=O)N(Cc3nc4c(c(=O)[nH]3)COCC4)CC3CC3)CC2)cc1 | 81.7 |
| CC(C)(N)c1ncc(-c2ccc(OC(F)(F)F)cc2)[nH]1 | > 120 |
| C[C@]12Cc3cn[nH]c3C[C@@H]1CC[C@@H]1[C@@H]2CC[C@@]2(C)[C@H]1CC[C@]2(C)O | 24 |
| Cc1cc(C(C)Nc2ccccc2C(=O)O)c2nc(N3CCOCC3)cc(=O)n2c1 (centres undefined) | > 120 |
| CC(C)(O)c1ccc2c(c1)ncn2-c1cccc(-c2ccccc2C#N)c1 | > 120 |
| Cc1cccc(N2CCN(C(=O)c3cccn3-c3nnc(N4CCCCC4)s3)CC2)c1C | 3.17 |
| CN(C)[C@@H]1C(=O)C(C(N)=O)=C(O)[C@@]2(O)C(=O)C3=C(O)c4c(O)ccc(Cl)c4[C@@H](O)[C@H]3C[C@@H]12 | > 120 |
| CCC[C@H](N[C@H]1CCc2cc(F)cc(F)c2C1)C(=O)Nc1cn(C(C)(C)CNCC(C)(C)C)cn1 | 3.12 |
| Cc1ccc(-n2c(SCc3ccccc3F)nc3[nH]ncc3c2=O)cc1C | 21.6 |

| SMILES | half-life [min] |
| --- | --- |
| C=Cc1ccc(Cn2c(SCC(=O)N3CCN(c4ccc(F)cc4)CC3)nc3ccccc32)cc1 | 2.42 |
| CNCC[C@@H](Oc1ccccc1C)c1ccccc1 | 23.9 |
| CCCn1cnc2c1c(=O)n(CCCCC(C)=O)c(=O)n2C | > 120 |
| CCOc1ccccc1OCCN[C@H](C)Cc1ccc(OC)c(S(N)(=O)=O)c1 | > 120 |
| CCC(=C(c1ccc(OCCN2CCCC2)cc1)c1ccc(OCCN2CCCC2)cc1)c1ccccc1 | > 120 |
| CN(C)N(C)C(=O)[C@@]1(Cc2ccccc2)CCCN(C(=O)[C@@H](Cc2c[nH]c3ccccc23)NC(=O)C(C)(C)N)C1 | 12.6 |
| CC[C@@H](C)Nc1cc(C(=O)NC2CC3CC[C@@H](C2)N3c2ccc(C(=O)C3CC3)cn2)c(C)cc1C(N)=O (some centres undefined) | > 120 |
| CCOP(=O)(OCC)Oc1cc(C)nc(C(C)C)n1 | 99.9 |
| Clc1ccc(C(Cn2ccnc2)OCc2ccc(Sc3ccccc3)cc2)c(Cl)c1 (centres undefined) | 54.1 |
| CCOC(=O)c1ccc(Nc2nc3nonc3nc2Nc2cccc(C)c2C)cc1 | 10.7 |
| N#Cc1cccc(CN2CCOC[C@H]2c2ncc(-c3ccc(F)cc3)[nH]2)c1 | 3.38 |
| COc1ccccc1OC[C@H](O)COC(N)=O | > 120 |
| Nc1cc(=O)[nH]c(N)n1 | 99.2 |
| CCOC(=O)c1cc(C#N)c(N2CCC(C(=O)NS(=O)(=O)Cc3ccccc3)CC2)nc1C | 43.7 |
| CC1=C(C(=O)Nc2cccc(CN)c2)C(c2ccccc2Cl)N=C(Nc2nc3ccccc3o2)N1 (centres undefined) | > 120 |
| CCOc1cc(OCC)c(C(=O)CCC(=O)O)cc1OCC | > 120 |
| O=C(O)c1cccc(CN2C(=O)/C(=C(\c3ccccc3)c3ccc(Cl)cc3)c3ccccc32)c1 | > 120 |
| Cc1cc(CN)cc(C)c1NC(=O)c1ccc(-c2cc(Cl)ccc2Cl)o1 | > 120 |
| CCN1CC(CCN2CCOCC2)C(c2ccccc2)(c2ccccc2)C1=O (centres undefined) | 33.9 |
| O=C(N[C@@H]1CC[C@@H](c2cccc(F)c2F)CN(CC(F)(F)F)C1=O)N1CCC(n2c(=O)[nH]c3ncccc32)CC1 | 60.2 |
| CC1(C)C(=O)N(c2ccc(C#N)c(C(F)(F)F)c2)C(=S)N1c1ccc(C(N)=O)c(F)c1 | > 120 |
| CCn1ccnc1C[C@@H]1COc2ccccc2O1 | 55.3 |
| CC(C)(C)NCC(O)COc1cccc2c1CCC(=O)N2 (centres undefined) | > 120 |
| COc1cc2nc(Cl)nc(N)c2cc1OC | 105 |
| C[C@@H](N)c1ccc(C(=O)Nc2ccnc3[nH]ccc23)cc1 | > 120 |

| SMILES | half-life [min] |
| --- | --- |
| Cc1cccc(C(=O)O)c1O | > 120 |
| CC(C)c1c(NC(=O)Nc2ccc(Cl)cc2)c(=O)n(-c2ccccc2)n1C | > 120 |
| CCN1CCCC1CNC(=O)c1cc(S(=O)(=O)CC)c(N)cc1OC (centres undefined) | > 120 |
| Cc1noc(-c2ccc(-c3ccc(CC(=O)O)cc3)cc2)c1NC(=O)O[C@H](C)c1ccccc1Cl | 29.7 |
| COc1cc(=O)n2c(c1C(=O)NCc1ccc3c(c1)OCO3)CCN(C(=O)c1ccc(C)cc1C)CC2 | 34.4 |
| CCC(=O)N[C@@H]1Cc2ccccc2[C@H](c2ccccc2)C1 | 46.1 |
| Cc1ccccc1C(=O)Nc1cccc(-c2nc3cccnc3s2)c1 | 6.57 |
| Oc1ccc(-c2cnc3ccc(NCc4ccco4)nn23)cc1 | 9.45 |
| Cc1ccc(-c2noc([C@@H]3Cc4nc[nH]c4CN3Cc3cccc(C#N)c3)n2)cc1 | 11.4 |
| CN(C(=O)CN(CCO)CC(=O)N(C)C(C)(C)Cc1ccccc1)C(C)(C)Cc1ccccc1 | 0.58 |
| COc1cc2nc(=NC(=O)c3cccnc3)n3c(c2cc1OC)NCC3 | 45 |
| Cc1ccc(C(=O)Oc2ccc(C(O)CNC(C)(C)C)cc2OC(=O)c2ccc(C)cc2)cc1 (centres undefined) | 2.27 |
| CCn1cc(C(=O)O)c(=O)c2cc(F)c(N3CCN[C@@H](C)C3)c(F)c21 | 87.7 |
| CC(C)(C)CC(=O)OCC(=O)[C@@]1(O)CC[C@H]2[C@@H]3CCC4=CC(=O)C=C[C@]4(C)[C@H]3[C@@H](O)C[C@@]21C | 2.13 |
| CCOc1cc(CC(=O)N[C@@H](CC(C)C)c2ccccc2N2CCCCC2)ccc1C(=O)O | 44.3 |
| COc1cc2c(cc1OC)CN(C(=O)[C@@H](NCc1ccncc1)C(C)(C)C)CC2 | 2.24 |
| O=C1N(c2ccccc2)c2ccccc2C1(Cc1ccncc1)Cc1ccncc1 | 1.71 |
| CC1(C)O[C@@H]2C[C@H]3[C@@H]4C[C@H](F)C5=CC(=O)CC[C@]5(C)[C@H]4[C@@H](O)C[C@]3(C)[C@]2(C(=O)CO)O1 | 18 |
| COc1cccc(C(=O)Nc2ccc3ncnc(N4CCCCC4)c3c2)c1 | 5.03 |
| Cc1cccc(C)c1NC(=O)c1ccccc1C(=O)O | > 120 |
| COc1ccc(-c2oc3cc(OC)ccc3c2C(=O)c2ccc(C#N)cc2)cc1 | 20.6 |
| CCOP(=S)(Oc1cnc(C(C)(C)C)nc1)OC(C)C (centres undefined) | 11.1 |
| CCN1C(=O)c2ccccc2C1Nc1ccc(OCCN2CCCCC2)cc1 (centres undefined) | 105 |
| FC(F)(F)c1ccccc1-c1cc(C(F)(F)F)c2nc(C3=NOC4(CCCCC4)C3)[nH]c2c1 | 67.7 |
| CCCSP(=S)(OCC)Oc1ccc(SC)cc1 (centres undefined) | > 120 |

| SMILES | half-life [min] |
| --- | --- |
| CN(C)CC#CCCC(=O)C(O)(c1ccccc1)C1CCC1 (centres undefined) | 102 |
| COc1ccc(CCNc2nc(SCc3ccccc3Cl)nc3ccccc23)cc1OC | 7.1 |
| COc1ccc(CNC(=O)C2CCCN(c3nnc(C)c4c(C)n(-c5ccc(C)cc5)nc34)C2)cc1 (centres undefined) | 5.53 |
| C[C@@H]1C[C@H]2[C@@H]3CCC4=CC(=O)C=C[C@]4(C)[C@@]3(F)[C@@H](O)C[C@]2(C)[C@H]1C(=O)CO | 57.3 |
| COc1cc(OC)cc(OC)c1 | 18.1 |
| COc1ccc(C(=O)NC(c2ccccc2Cl)c2cc(Cl)c3cccnc3c2O)cc1 (centres undefined) | 37.1 |
| Cn1c(=O)cc(N2CCCC(N)C2)n(Cc2ccccc2C#N)c1=O (centres undefined) | > 120 |
| O=c1cc(OCc2ccc(F)cc2)ccn1-c1ccc(OCCN2CCCC2)cc1 | > 120 |
| CCOC(=O)c1ccc(OCCN2C[C@H](O)[C@@H](O)[C@H](O)[C@H]2CO)cc1 | > 120 |
| CCN1CCN(Cc2ccc(NC(=O)c3ccc(C)c(/C=C/c4cnc5[nH]ccc5c4OC)c3)cc2C(F)(F)F)CC1 | > 120 |
| CCN(CC)C(=O)c1ccc(Nc2nc(OCC3CCCCC3)c3[nH]cnc3n2)cc1 | 8.96 |
| COc1ccc2nc(S(=O)Cc3ncc(C)c(OC)c3C)[nH]c2c1 (centres undefined) | > 120 |
| Cc1cc(=O)oc2cc(O)ccc12 | 60.6 |
| c1cc2c(c(N3CCNCC3)c1)OCCO2 | > 120 |
| C[C@@H]1C[C@H]2[C@@H]3C[C@H](F)C4=CC(=O)C(Cl)=C[C@]4(C)[C@@]3(F)[C@@H](O)C[C@]2(C)[C@@]1(O)C(=O)CO | 46.3 |
| Cc1ccc(N2CCN(C(=O)C3CCN(c4ncnc5c4nc4n5CCCCC4)CC3)CC2)c(C)c1 | > 120 |
| CC(=O)N1CCC(Cc2ccc(C(=O)NC3CC3)cc2)CC1 | > 120 |
| CC[C@@H]([C@H](C)O)n1ncn(-c2ccc(N3CCN(c4ccc(OC[C@@H]5CO[C@@](Cn6cncn6)(c6ccc(F)cc6F)C5)cc4)CC3)cc2)c1=O | > 120 |
| OC1(c2ccc(Cl)cc2)CCNCC1 | > 120 |
| CCOc1ccc(Nc2nc(C)c(NC(=O)c3ccc(C)cc3)c(Nc3ccc(OCC)cc3)n2)cc1 | 12.2 |
| CNc1nccc(-c2cccnc2Oc2cc(C(=O)Nc3cccc(C(F)(F)F)c3)ccc2C)n1 | 11.3 |
| O=C(CO)N1CCC(c2[nH]nc(-c3ccc(Cl)cc3)c2-c2ccncn2)CC1 | > 120 |
| CN(C)CCN(Cc1ccc(Cl)cc1)c1ccccn1 | 18.8 |
| COc1ccc(CCN(C)CCC[C@@](C#N)(c2cc(OC)c(OC)c(OC)c2)C(C)C)cc1OC | 7.68 |
